In experiment [1] the target is Hsp90 (C. albicans whole cell lysate) (Candida albicans (strain SC5314 / ATCC MYA-2876) (Yeast), UniProt P46598). As to the kind of experiment: biochemical. The experiment is classed as binding. As to conditions: for C. alb Active (biochemical): Yes/No call. On the procedure:
All analogs were assessed for Hsp90 binding affinity using a fluorescence polarization (FP)-based equilibrium competition assay in fungal and human whole cell lysates. […] Using lysates, the relative potency and selectivity for fungal Hsp90 was measured versus the entire ensemble of human Hsp90 isoforms in microplate format using small amounts of test materials. […] Thermal shift assays were performed under saturating ligand conditions, i.e. equimolar concentrations (10 μM) of protein and ligand. As a result, they provided qualitative evidence of target binding, but not a quantitative measurement of ligand affinity. For quantitation, a ligand dissociation constant (Ki) for key compounds was also determined using purified NBDs in FP assays and KD measurements were made by surface plasmon resonance (SPR) using a Biacore instrument. Finally, all analogs were assessed for whole cell antifungal activity against the pathogens C. albicans and C. neoformans.
FP assays. Whole cell lysates were prepared for FP assays as described previously. Total protein concentration of human and yeast lysates was determined by Bradford assay. […] Serial dilutions of test Hsp90 inhibitors were then assayed under these same conditions to monitor loss of fluorescence polarization as an indicator of probe displacement from Hsp90. […] Titrations of test compound in 25 μL of binding buffer (supplemented with 0.1 mg/mL bovine gamma globulin), were mixed with an equal volume of freshly prepared whole-cell lysate spiked with Cy3-GdA (0.1 nM). Plates were incubated at room temperature for 4.5 h to achieve equilibrium binding for the geldanamycin-based probe. […] Non-linear 4-parameter curve fitting of raw displacement data was performed in GraphPad Prism 5.0 to determine EC50 values as a measure of relative Hsp90-binding affinity. Results were normalized to the value determined for GdA in lysate of each cell type.
Statistical methods. […] In calculating the error of selectivity determinations, the fractional error of measurements in each species was summed to yield a composite error for the derived ratio.

The test system of experiment [2] is C. neoformans (Strain H99). Kind of experiment: Antifungal sensitivity testing (MIC), C. neoformans H99. It counts as cell-based. The settings on record: for MIC80 / MIC90: Cryptococcus neoformans; for MIC80: read-out: C. neo MIC80; for MIC90: read-out: C. neo MIC90. On the procedure: Color scale bar: no growth inhibition (green) to complete inhibition (black). Each shaded box represents the mean of technical duplicates. The experiment was repeated as an independent biological replicate to confirm results.
Minimum inhibitory concentration (MIC) value for compounds against C. neoformans (Strain H99) was determined in dose-response format, in technical duplicate. Experiments were conducted in RPMI medium at 37° C. for 48 h. Relative viable cell number was measured by standard dye reduction (resazurin) assay.
Yeast strains and culture conditions. Strains used in this study were C. albicans CaCi2 (clinical isolate 2), [58] SC5314, [59] and C. neoformans H99. […] Active cultures were maintained on solid (2% agar) yeast extract peptone (YPD, 1% yeast extract, 2% bactopeptone, 2% glucose) at 4° C. for no more than one month.
Antifungal sensitivity testing. […] Each compound was tested in duplicate in at least two independent experiments. […] Plates were photographed after 24 h of incubation at 30° C.

The mark [3] stands for this setting: FP competition, whole cell lysate, duplicate, screening experiment, read-out: C. albicans EC50.

Consider 23 compounds from US11312722B2, “Hsp90 inhibitors and uses thereof” (TRUSTEES OF BOSTON UNIVERSITY, priority 2019, dated 2022).

The structures appear in SMILES notation. Where two headings read alike, the source gives them in different places.

Broadly, the EC50 is the concentration that produces a half-maximal response. Take `COc1cccc(-c2cc(Nc3cc(O)cc(O)c3C(=O)N3Cc4cccc(F)c4C3)n(C)n2)c1` [ACSM01130]: the “C. alb Active (biochemical)” value in experiment [1] was “Yes”. Further, the EC50 in experiment [1] (read-out: C. alb EC50) was found to be 5.82 µM. In addition, in experiment [2], the “C. neo MIC80” value is greater than 50 µM and the “C. neo MIC90” value was greater than 50 µM.
As for `Cc1ccccc1-c1cc(Nc2cc(O)cc(O)c2C(=O)N2Cc3ccc(F)cc3C2)n(C)n1` [ACSM01135], the “C. alb Active (biochemical)” value in experiment [1] is given as “Yes”. The EC50 in experiment [1] (read-out: C. alb EC50) came out at 0.904 µM.
With `Cc1ccc(F)c(-c2cc(Nc3cc(O)cc(O)c3C(=O)N3Cc4ccccc4C3)n(C)n2)c1` [ACSM01268], the “C. alb Active (biochemical)” value in experiment [1] is “Yes”. For the same compound, the EC50 in experiment [1] (read-out: C. alb EC50) came out at 1.68 µM.
As for `Cn1nc(-c2cccc(F)c2F)cc1Nc1cc(O)cc(O)c1C(=O)N1Cc2ccccc2C1` [ACSM01269], in experiment [1], the “C. alb Active (biochemical)” value is reported as “Yes”. The EC50 in experiment [1] (read-out: C. alb EC50) worked out at 2.21 µM.
Consider `Cn1nc(-c2cc(F)ccc2F)cc1Nc1cc(O)cc(O)c1C(=O)N1Cc2ccccc2C1` [ACSM01270], for which the “C. alb Active (biochemical)” value in experiment [1] is “Yes”. The EC50 in experiment [1] (read-out: C. alb EC50) turned out to be 1.12 µM.
As to `COc1ccccc1-c1cc(Nc2cc(O)cc(O)c2C(=O)N2CC[C@H](N)C2)n(C)n1` [ACSM01271], the “C. alb Active (biochemical)” value in experiment [1] is on record as “Yes”. Also, in experiment [1] (read-out: C. alb EC50), the concentration for a half-maximal effect (EC50) came to 5.34 µM. In experiment [2], the “C. neo MIC80” value is greater than 25 µM and the “C. neo MIC90” value is greater than 25 µM.
As for `Cc1cccc(-c2cc(Nc3cc(O)cc(O)c3C(=O)N3Cc4ccccc4C3)n(C)n2)c1C` [ACSM01272], in experiment [1], the “C. alb Active (biochemical)” value is reported as “Yes”. Besides, the EC50 in experiment [1] (read-out: C. alb EC50) amounted to 6.2 µM.
`Cc1cccc(-c2cc(Nc3cc(O)cc(O)c3C(=O)N3Cc4ccccc4C3)n(C)n2)c1F` [ACSM01273]: the “C. alb Active (biochemical)” value in experiment [1] is “Yes”.
For `Cn1nc(-c2cccc(F)c2)cc1Nc1cc(O)cc(O)c1C(=O)N1Cc2ccccc2C1` [ACSM01345], the “C. alb Active (biochemical)” value in experiment [1] is listed as “Yes”. Besides, the half-maximal effective concentration (EC50) in experiment [1] (read-out: C. alb EC50) is 1.25 µM.
Consider `Cn1nc(-c2cccc(Cl)c2)cc1Nc1cc(O)cc(O)c1C(=O)N1Cc2ccccc2C1` [ACSM01362], for which the “C. alb Active (biochemical)” value in experiment [1] was “Yes”. Moreover, the concentration for a half-maximal effect (EC50) in experiment [1] (read-out: C. alb EC50) came to 4.17 µM.
Broadly, the MIC80 is the lowest concentration that inhibits either 80% of growth or 80% of the strains tested, depending on the study. For orientation: MIC90 means the lowest concentration that inhibits either 90% of growth or 90% of the strains tested, depending on the study. `COc1ccc(Cn2nc(C)cc2Nc2cc(O)cc(O)c2C(=O)N(C)CC2CC2)cc1` [Compound 30, N-(Cyclopropylmethyl)-2,4-dihydroxy-6-((1-((4-methoxyphenyl)methyl)-3-methyl-1H-pyrazol-5-yl)amino)-N-methylbenzamide]: the half-maximal effective concentration (EC50) in experiment [1] (setting [3]) is greater than 9 µM. In addition, in experiment [1], the “C. alb Active (biochemical)” value is “No”. Moreover, the EC50 in experiment [1] (read-out: C. alb EC50) was greater than 9 µM. In experiment [2], the MIC80 was greater than 25 µM and the MIC90 is greater than 25 µM.
In the case of `COc1ccc(Cn2nc(C)cc2Nc2cc(O)cc(O)c2C(=O)N(C)Cc2ccccc2)cc1` [Compound 37, N-Benzyl-2,4-dihydroxy-6-((1-((4-methoxyphenyl)methyl)-3-methyl-1H-pyrazol-5-yl)amino)-N-methylbenzamide], in experiment [1] (setting [3]), the EC50 was greater than 6 µM.
Regarding `Cn1nccc1Nc1cc(O)cc(O)c1C(=O)N1Cc2cn[nH]c2C1` [Compound 58, 5-((1-Methyl-1H-pyrazol-5-yl)amino)-4-(1H,4H,5H,6H-pyrrolo[3,4-c]pyrazole-5-carbonyl)benzene-1,3-diol], the “C. alb Active (biochemical)” value in experiment [1] is “Yes”. Further, in experiment [2], the MIC80 is greater than 25 µM and the MIC90 was greater than 25 µM.
Take `Cn1nc(-c2ccccc2)cc1Nc1cc(O)cc(O)c1C(=O)N1Cc2cccnc2C1` [Compound 92, 5-((1-Methyl-3-phenyl-1H-pyrazol-5-yl)amino)-4-(5H,6H,7H-pyrrolo[3,4-b]pyridine-6-carbonyl)benzene-1,3-diol]: the “C. alb Active (biochemical)” value in experiment [1] is recorded as “Yes”. Further, in experiment [2], the MIC80 was greater than 25 µM and the MIC90 was greater than 25 µM.
As to `Cn1nc(-c2ccccc2)cc1Nc1cc(O)cc(O)c1C(=O)N1Cc2cn[nH]c2C1` [Compound 93, 5-((1-Methyl-3-phenyl-1H-pyrazol-5-yl)amino)-4-(1H,4H,5H,6H-pyrrolo[3,4-c]pyrazole-5-carbonyl)benzene-1,3-diol], the “C. alb Active (biochemical)” value in experiment [1] is “Yes”. Besides, in experiment [2], the MIC80 is greater than 25 µM and the MIC90 was greater than 25 µM.
Turning to `CC(C)(C)n1nc(-c2ccccc2)cc1Nc1cc(O)cc(O)c1C(=O)N1Cc2cccnc2C1` [Compound 94, 5-((1-tert-Butyl-3-phenyl-1H-pyrazol-5-yl)amino)-4-(5H,6H,7H-pyrrolo[3,4-b]pyridine-6-carbonyl)benzene-1,3-diol], the “C. alb Active (biochemical)” value in experiment [1] is reported as “Yes”. Further, in experiment [2], the MIC80 was greater than 25 µM and the MIC90 is greater than 25 µM.
For `CC(C)(C)n1nc(-c2ccccc2)cc1Nc1cc(O)cc(O)c1C(=O)N1Cc2cn[nH]c2C1` [Compound 95, 5-((1-tert-Butyl-3-phenyl-1H-pyrazol-5-yl)amino)-4-(1H,4H,5H,6H-pyrrolo[3,4-c]pyrazole-5-carbonyl)benzene-1,3-diol], in experiment [1], the “C. alb Active (biochemical)” value is recorded as “Yes”. Moreover, in experiment [2], the MIC80 was greater than 25 µM and the MIC90 is greater than 25 µM.
Consider `Cn1nc(C2CCCCC2)cc1Nc1cc(O)cc(O)c1C(=O)N1Cc2cccnc2C1` [Compound 104, 5-((3-Cyclohexyl-1-methyl-1H-pyrazol-5-yl)amino)-4-(5H,6H,7H-pyrrolo[3,4-b]pyridine-6-carbonyl)benzene-1,3-diol], for which the “C. alb Active (biochemical)” value in experiment [1] is “Yes”. Also, in experiment [2], the MIC80 is greater than 25 µM and the MIC90 was greater than 25 µM.
On to `Cc1ccccc1-c1cc(Nc2cc(O)cc(O)c2C(=O)N2Cc3cccnc3C2)n(C)n1` [Compound 107, 5-((1-Methyl-3-(2-methylphenyl)-1H-pyrazol-5-yl)amino)-4-(5H,6H,7H-pyrrolo[3,4-b]pyridine-6-carbonyl)benzene-1,3-diol], for which, in experiment [1], the “C. alb Active (biochemical)” value is “Yes”. In addition, in experiment [2], the MIC80 is greater than 25 µM and the MIC90 is greater than 25 µM.
Take `Cc1ccccc1-c1cc(Nc2cc(O)cc(O)c2C(=O)N2Cc3cn[nH]c3C2)n(C)n1` [Compound 108, 5-((1-Methyl-3-(2-methylphenyl)-1H-pyrazol-5-yl)amino)-4-(1H,4H,5H,6H-pyrrolo[3,4-c]pyrazole-5-carbonyl)benzene-1,3-diol]: in experiment [1], the “C. alb Active (biochemical)” value is on record as “Yes”. For the same compound, in experiment [2], the MIC80 was greater than 25 µM and the MIC90 is greater than 25 µM.
For the compound `Cc1cccc(-c2cc(Nc3cc(O)cc(O)c3C(=O)N3Cc4ccccc4C3)n(C)n2)c1` [Compound 109, 4-(2,3-Dihydro-1H-isoindole-2-carbonyl)-5-((1-methyl-3-(3-methylphenyl)-1H-pyrazol-5-yl)amino)benzene-1,3-diol], in experiment [1], the “C. alb Active (biochemical)” value is reported as “Yes”. In experiment [2], the MIC80 is greater than 25 µM and the MIC90 is greater than 25 µM.
On to `Cc1cccc(-c2cc(Nc3cc(O)cc(O)c3C(=O)N3Cc4cccnc4C3)n(C)n2)c1` [Compound 110, 5-((1-Methyl-3-(3-methylphenyl)-1H-pyrazol-5-yl)amino)-4-(5H,6H,7H-pyrrolo[3,4-b]pyridine-6-carbonyl)benzene-1,3-diol], for which, in experiment [1], the “C. alb Active (biochemical)” value was “Yes”. Besides, in experiment [2], the MIC80 is greater than 25 µM and the MIC90 is greater than 25 µM.
Consider `COc1ccc(-c2cc(Nc3cc(O)cc(O)c3C(=O)N3Cc4ccccc4C3)n(C)n2)cc1` [Compound 121, 4-(2,3-Dihydro-1H-isoindole-2-carbonyl)-5-((3-(4-methoxyphenyl)-1-methyl-1H-pyrazol-5-yl)amino)benzene-1,3-diol], for which, in experiment [2], the MIC80 is greater than 25 µM and the MIC90 is greater than 25 µM. In addition, in experiment [2] (Yes/No call), the “C. neo Active (cells)” value is “No”.
